Reference: US20140196172A1, “Organelle Targeting Nanocarriers” (Her Majesty the Queen in Right of Canada, as Repre sented …, priority 2011, published 2014)

Columns and labels:
Caco-2 cells = assay: Caco-2 cell transformation with gfp reporter, photometric cell imaging; assay type: cell-based, human; conditions: for Fluorescence observed in cells upon transfection / Expression of GFP in mitochondria: Caco-2, mitochondrial gfp-reporter construct; for Expression of GFP in mitochondria: photometric cell imaging; for gfp expression, Photometric Cell Imaging (average counts/sec) Caco-2: pWMaadA16GFP 5 μg + peptide 500 μg, measured at 40 h
Procedure: (§1) Uptake of labeled peptides by cells is quantified using a photometric detector/cell-imaging system (PTI). An excitation scan is run to determine if uptake has occurred as indicated by peaks at the appropriate wavelengths and if the amount changes in a dose-dependent manner compared to unlabeled cells. A time-based scan is then performed at the optimal excitation and emission wavelength to quantify total uptake, using about 20 cells/view/replicate.
(§2) The ten non-labelled oTPs listed in Tables 3 and 4 were tested for their capability to deliver biologically active DNA to chloroplasts or mitochondria using an oTP-GFP reporter construct transfection assay. oTPs are mixed with a double stranded (ds) DNA construct encoding Aequorea victoria green fluorescent protein (GFP) to form a complex. The plasmid-peptide nanocomplexes formed are incubated with triticale mesophyll protoplasts, microspores, or MDCK, Caco-2, F1112 or MG cells. Detection of a fluorescent signal by confocal microscopy and/or photometric cell imaging would indicate that the dsDNA had been transported into organelles and that transient expression of GFP had occurred. In addition, gene expression can be measured using quantitative real-time PCR to determine gfp mRNA abundance.
(§3) Wheat mitochondrial aadA16GFP reporter plasmid (pWMaadA16GFP, FIG. 11) is a 4587 base pair wheat specific mitochondrial transformation vector, which targets insertions into the fourth repeat region between the trnfM and rm18 gene cluster which is repeated three times in the Triticum aestivum mitochondrial genome. The insertion site is in the Triticum aestivum mitochondrial genome at nucleotides 300805-300878 and 300880-302834 (GenBank accession No. AP008982.1). A multiple cloning site is introduced following the tmfM target insertion sequence. The selection marker gene is an organelle codon specific aad-gfp fusion gene, which facilitates a dual selection method of spectinomycin resistance through an aadA derivative and visual detection by GFP fluorescence (GenBank accession No. ABX39486; Khan and Maliga, Nat. Biotechnol. (1999 September) 17(9): 910-5). The selection marker gene is driven by the Triticum aestivum mitochondrial atpA gene promoter (GenBank accession No. X54387.1). The aad-gfp fusion gene is terminated with the TpsbA terminator sequence derived from the Triticum aestivum mitochondrial genome at nucleotides 62871-62565 (GenBank accession No. AP008982.1).
(§4) The dsDNA construct (pWMaadA16GFP. 100 μl of the stock solution, 5 μg) is combined with mTP1 (SEQ ID NO: 1) or mTP4 (SEQ ID NO: 4) (100 μl of the unlabelled stock, 500 μg) and incubated for 15 minutes at 37° C. An 800 μl aliquot of DMEM is added to the mixture and 100 μl of this mixture is then added to each cell monolayer (prepared as described in Example 2) that has 500 μl complete media. The cells are incubated at 37° C. in a humidified atmosphere containing 5% CO2 for 24 h to 72 hr. The uptake and expression of the GFP reporter is measured at 40 h using a photometric detector/cell-imaging system (PTI) as described in Example 2. The cells are also imaged using confocal microscopy as described in Example 2 using MitoTracker® Orange staining to visualize mitochondria.

MG cells = assay: MG cell transformation with gfp reporter, photometric cell imaging; assay type: cell-based, bovine; conditions: for Fluorescence observed in cells upon transfection / Expression of GFP in mitochondria: MG, mitochondrial gfp-reporter construct; for Expression of GFP in mitochondria: photometric cell imaging; for gfp expression, Photometric Cell Imaging (average counts/sec) MG: pWMaadA16GFP 5 μg + peptide 500 μg, measured at 40 h
Procedure: as §1, §2, §3, §4

[1] = system: mitochondria of triticale mesophyll protoplasts; assay: Protoplast transformation with gfp reporter, confocal microscopy; assay type: cell-based; conditions: pWMaadA16GFP plasmid, 24 h
Procedure: as §2
Wheat mitochondrial aadA16GFP reporter plasmid (pWMaadA16GFP, FIG. 11) is a 4587 base pair wheat specific mitochondrial transformation vector, which targets insertions into the fourth repeat region between the trnfM and rm18 gene cluster which is repeated three times in the Triticum aestivum mitochondrial genome. The insertion site is in the Triticum aestivum mitochondrial genome at nucleotides 300805-300878 and 300880-302834 (GenBank accession No. AP008982.1). A multiple cloning site is introduced following the tmfM target insertion sequence. […]

F1112 cells = assay: F1112 cell transformation with gfp reporter, photometric cell imaging; assay type: cell-based, bovine; conditions: for Fluorescence observed in cells upon transfection / Expression of GFP in mitochondria: F1112, mitochondrial gfp-reporter construct; for Expression of GFP in mitochondria: photometric cell imaging; for gfp expression, Photometric Cell Imaging (average counts/sec) F1112: pWMaadA16GFP 5 μg + peptide 500 μg, measured at 40 h
Procedure: as §1, §2, §3, §4

Row | Sequence | Fluorescence observed in cells upon transfection (Caco-2 cells) | Expression of GFP in mitochondria (Caco-2 cells) | gfp expression, Photometric Cell Imaging (average counts/sec) Caco-2 (Caco-2 cells) | Fluorescence observed in cells upon transfection (MG cells) | Expression of GFP in mitochondria (MG cells) | gfp expression, Photometric Cell Imaging (average counts/sec) MG (MG cells) | Transfection of mitochondria (GFP fluorescence) [1] | Fluorescence observed in cells upon transfection (F1112 cells) | Expression of GFP in mitochondria (F1112 cells) | gfp expression, Photometric Cell Imaging (average counts/sec) F1112 (F1112 cells)
1 | MWWRRSRTNSLRYT (listed as Arabidopsis thaliana) [mTP4] | no fluorescence was observed | detected | 570000 counts/sec | no fluorescence was observed | detected | 650000 counts/sec | can mediate the transfection of mitochondria | no fluorescence was observed | detected | 650000 counts/sec
2 | MAAWMRSLFSPLKKLWIRMH (Zea mays) [mTP2] |  |  |  |  |  |  | can mediate the transfection of mitochondria |  |  | 
3 | MFSYLPRYPLRAASARALVRATRPSYRSALLRYQ (listed as Triticum aestivum) [mTP1] | fluorescence was observed in all cells | detected | 2000000 counts/sec | fluorescence was observed in all cells | detected | 1900000 counts/sec |  | fluorescence was observed in all cells | detected | 1900000 counts/sec
